Consider six compounds from patent US20220218639A1.

Data set [1] has as its target T1, plasmin (Homo sapiens, UniProt P00747). Briefly: S-2251 inhibition assay (Dixon plot), plasmin. The format is biochemical. The arrangement: purchased Sigma-Aldrich. The conditions noted are these: for mode of inhibition (plasmin): Dixon plot with S/Vo vs I plot; for Ki: Dixon plot, S-2251 100, 350, 750 μM, enzyme 1.0 μg/mL, PBS pH 7.4, unit inferred; for Pen X-Fold inhibition (Plasmin): Ki of the inhibitor relative to Ki of pentamidine.
Protocol: Inhibition Assays: Inhibition assays were carried out at a fixed plasmin concentration in the presence of a range of small molecule inhibitor concentrations from (0-1500 μM) and at least three different S-2251 substrate concentrations ranging from (0-750 μM). Ki values for both full length/native plasmin (sigma plasmin) and delta-plasmin for the small molecule inhibitors and nanoparticles were calculated based on the x-axis value at the negative intersection point of the inhibition curves at the different S-2251 substrate concentrations at a constant plasmin concentration. All experiments were carried out in triplicate and data represents means plus or minus standard deviations.

The target in a further data set is T2, δ-plasmin (Homo sapiens, UniProt P00747, DEL181-559).
T2 construct: made in house; host or cells: E. coli (T7 expression system, pET 24b(+))
The experiment in a line: S-2251 inhibition assay (Dixon plot), δ-plasmin. Type of data set: biochemical. Conditions: for mode of inhibition (δ-plasmin): Dixon plot with S/Vo vs I plot; for Ki: Dixon plot, S-2251 100, 350, 750 μM, enzyme 1.0 μg/mL, PBS pH 7.4, unit inferred; for Pen X-Fold inhibition (Delta Plasmin): Ki of the inhibitor relative to Ki of pentamidine.

The target in data set [2] is T1, plasmin. Briefly: Fluorescence titration dissociation constant (Kd) assay. Type of data set: binding. Also on record: purchased Sigma-Aldrich; host or cells: human plasma. Conditions: emission 370 nm, PBS pH 7.4, no S-2251; unit inferred; read-out: Kd by fluorescence titration (PB Fl Ki). The method, then:
Fluorescence Titration Dissociation Constant (Kd) Assay. Plasmin was titrated with increasing concentrations of 4-aminobenzamidine from 0-1000 μM in PBS buffer at pH 7.4. By monitoring the increase in fluorescence emission (excitation 280 nm, emission at 370 nm) from 4-aminobenzamdine associated plasmin, a direct determination of its dissociation constant (Kd) can be made. Fitting the data to a sigmoid the Kd value for 4-aminobenzamidine to sigma plasmin is the concentration of inhibitor at which 50% (or 0.5 or half maximum fluorescent emission is reached) intersects with the fit.
Fluorescent titration assay was carried out as described above for determining the Kd, which is the same as the Ki in the case of competitive inhibition, for the 4-aminobenzamidine derivative to plasmin in the absence of the S-2251 substrate.
p-Aminobenzamidine's fluorescent properties enable the implementation of a fluorescent titration assay to directly determine its binding affinity to plasmin. […] At a constant plasmin concentration, increasing amounts of p-aminobenzamidine were titrated into the sample monitoring the fluorescence emission at 370 nm (FIG. 10A).

The subject of another data set is blood clots. Briefly: Clot digestion assay in serum. The conditions noted are these: 50% serum, 2 hours room temp, background-corrected. How it is done: In this Example, blood clot digestion by nanoparticles prepared using 4-carboxybenzamidine conjugated micelles and delta plasmin was analyzed in both PBS and serum.
Fresh blood was drawn and clotted in glass tubes at 37° C. for 1.5 hours. Clots were then cut, excess liquid was removed via light blotting, and weighed to produce clots of ˜600 mg size. Clots were then transferred to phosphate buffered saline (PBS at pH 7.4) or serum. […] After incubation, the blood clots were again lightly blotted and weighed. Experimental parameters are summarized in Table 3 for the clot digestion assay performed in serum.

Data set [3] can be described thus: Enzyme kinetics with S-2251 chromogenic substrate (Lineweaver-Burke plot). The format is biochemical. The arrangement: Kcat: unit not given here. Conditions: for Kcat: S-2251 substrate, PBS pH 7.4, unit not given. The method, then: Enzyme Kinetic and Inhibition Assays. All enzymatic assays were conducted in phosphate buffered saline (PBS, pH 7.4) at 25° C. on a Molecular Devices SpectraMax Plus 96 well plate reader. The S-2251 assay took advantage of a shift in absorbance of the substrate upon cleaving that could be monitored at a wavelength of 405 nm to determine enzyme kinetics as well as competitive inhibition Ki values for plasmin and its derivatives. […] Initial velocities were determined by the slope of the first 60 seconds of reaction with the S-2251 substrate. All experiments were carried out in triplicate and data represents means plus or minus standard deviations.
In this Example, the predicted kinetic characteristics of plasmin and delta-plasmin were compared. KM, Vmax and Kcat were determined for both full length plasmin and delta plasmin using a Lineweaver-Burke plot in which the concentration of plasmin was held constant across a range of S-2251 substrate concentrations (0-750 μM). Initial velocities for each data point were determined by the slope of the first 60 seconds of reaction with the S-2251 substrate following absorbance at 405 nm.
The Km and Kcat for the two forms of plasmin were determined utilizing an S2251 chromogenic substrate.

Values joined by “and” are separate entries in the source; they are usually repeats but may differ in a detail not shown here. Equal values may be shown once.

T1 sequence (P00747 581-810 limits assumed): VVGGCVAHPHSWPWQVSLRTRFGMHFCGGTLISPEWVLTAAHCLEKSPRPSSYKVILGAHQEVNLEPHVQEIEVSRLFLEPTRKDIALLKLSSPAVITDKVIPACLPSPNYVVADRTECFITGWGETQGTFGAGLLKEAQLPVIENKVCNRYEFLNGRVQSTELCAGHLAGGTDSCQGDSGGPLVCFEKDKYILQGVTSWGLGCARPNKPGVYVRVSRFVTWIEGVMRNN
T1 sequence (P00747 97-580 partner limits assumed): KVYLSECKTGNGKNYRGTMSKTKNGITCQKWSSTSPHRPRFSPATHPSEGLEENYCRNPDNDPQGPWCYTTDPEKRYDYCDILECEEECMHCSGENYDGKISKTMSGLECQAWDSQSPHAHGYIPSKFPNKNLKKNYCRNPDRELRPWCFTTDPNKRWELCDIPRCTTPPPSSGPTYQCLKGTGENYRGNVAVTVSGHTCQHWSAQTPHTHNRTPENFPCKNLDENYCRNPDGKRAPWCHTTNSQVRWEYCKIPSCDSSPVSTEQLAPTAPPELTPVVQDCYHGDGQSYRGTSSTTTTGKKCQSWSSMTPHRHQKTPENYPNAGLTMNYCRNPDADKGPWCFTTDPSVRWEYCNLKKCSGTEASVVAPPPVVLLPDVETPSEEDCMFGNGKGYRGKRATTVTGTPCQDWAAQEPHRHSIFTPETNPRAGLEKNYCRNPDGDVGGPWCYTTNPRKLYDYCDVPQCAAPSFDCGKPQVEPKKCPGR
T2 sequence (P00747 with tags, fused parts or gaps K528E/G536N/V538P/G539Q/N547D/R549E/L551R/V557I/P558L/Q559E): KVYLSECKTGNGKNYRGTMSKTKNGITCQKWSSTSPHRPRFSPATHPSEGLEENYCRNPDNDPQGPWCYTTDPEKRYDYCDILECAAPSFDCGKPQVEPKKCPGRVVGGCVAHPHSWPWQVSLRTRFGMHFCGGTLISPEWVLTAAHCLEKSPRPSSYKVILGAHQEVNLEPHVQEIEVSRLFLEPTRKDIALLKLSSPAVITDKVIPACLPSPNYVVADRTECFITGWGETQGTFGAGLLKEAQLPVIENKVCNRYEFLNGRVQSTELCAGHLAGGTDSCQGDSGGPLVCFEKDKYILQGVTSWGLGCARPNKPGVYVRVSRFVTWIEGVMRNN

By Ki is commonly meant the dissociation constant of the complex between target and ligand, obtained from inhibition or displacement. As to `N=C(N)c1ccc(N)cc1` [4-Aminobenzamidine], on plasmin [1], the “mode of inhibition (plasmin)” value is given as “purely competitive”, the Ki is 51.9 ± 2.38 µM and the “Pen X-Fold inhibition (Plasmin)” value is 23.8. At δ-plasmin, the “mode of inhibition (δ-plasmin)” value is listed as “purely competitive”, the inhibitory constant (Ki) came to 60.6 ± 6.72 µM and the “Pen X-Fold inhibition (Delta Plasmin)” value is listed as 15.2. Further, the Kd on plasmin [2] is 53.5 ± 4.42 µM.

Take `N=C(N)c1ccc(CN)cc1` [4-Aminomethyl Benzamidine]: on plasmin [1], the “mode of inhibition (plasmin)” value was “purely competitive”; the inhibition constant Ki was > 1000 µM and 1070 µM; the “Pen X-Fold inhibition (Plasmin)” value stood at 493.0. In addition, on δ-plasmin, the “mode of inhibition (δ-plasmin)” value is on record as “purely competitive”; the Ki was > 1000 µM and 1410 µM; the “Pen X-Fold inhibition (Delta Plasmin)” value turned out to be 353.8.

Consider `N=C(N)c1ccc(C(=O)O)cc1` [4-Carboxybenzamidine], for which, at plasmin [1], the “mode of inhibition (plasmin)” value is reported as “purely competitive”; the Ki is 292 µM and 293 µM; the “Pen X-Fold inhibition (Plasmin)” value came to 134.2. In addition, at δ-plasmin, the “mode of inhibition (δ-plasmin)” value is “purely competitive”, the Ki came to 302 ± 19.2 µM and the “Pen X-Fold inhibition (Delta Plasmin)” value is given as 75.8.

Consider `N=C(N)c1ccccc1` [Benzamidine], for which the “mode of inhibition (plasmin)” value at plasmin [1] is given as “purely competitive”. The “mode of inhibition (δ-plasmin)” value at δ-plasmin is on record as “purely competitive”.

On to `N=C(N)c1ccc(OCCCCCOc2ccc(C(=N)N)cc2)cc1` [Pentamidine], for which, on plasmin [1], the “mode of inhibition (plasmin)” value is on record as “primarily competitive”; the Ki is < 4 µM and 2.2 µM. In addition, the “stronger inhibition than the next best inhibitor (plasmin)” value at plasmin [1] (from Ki values) is more than 15 fold. Besides, on δ-plasmin, the “mode of inhibition (δ-plasmin)” value is “primarily competitive”. Further, the “stronger inhibition than the next best inhibitor (delta plasmin)” value on δ-plasmin (from Ki values) is given as more than 15 fold.

One may read the Km as the concentration of substrate that gives half-maximal velocity. Regarding “Delta Plasmin: Recombinant plasmin variant with K2-K5 deleted; kringle 1 linked directly with the catalytic domain (SEQ ID NO:2 zymogen)”, the clot digestion in the data set on blood clots turned out to be 7.175%. In addition, the Vmax in data set [3] (S-2251 0-750 μM, PBS pH 7.4, 25° C.) is given as 19.5. Also, the Km in data set [3] (S-2251 0-750 μM, PBS pH 7.4, 25° C., unit inferred) amounted to 325 ± 8.43 µM. Also, the Kcat is 778.2 in data set [3] and 778.21±1.51 in data set [3] (listed as δ-plasmin).
